Experimental data published in BindingDB's records for patent US20250263395 (Monte Rosa Therapeutics, 2025).

The molecules below were run against Protein cereblon (Homo sapiens, UniProt Q96SW2) (assay: HTRF assay).
Procedure: Biochemical assays were conducted in Greiner white 384 well HiBase plates (Cat. No 784075-25) in 10 μL total volume. A one pot detection solution of CRBN-DDB1 (2.5 nM), Anti-His Terbium Cryptate Gold (1×, PerkinElmer Cat. #: 61HI2TLB), and Cy5-Thalidomide (100 nM, Tenova Cat.: T52461) was prepared in 20 mM HEPES, 20 mM NaCl, 0.2 mM TCEP, 0.2 mM EDTA, and 0.005% Tween20 was dispensed to each assay plate. Compounds were stored in dry, ambient temperatures at 10 mM. A 10-point, 1:3 dilution series was prepared from 10 mM stock concentrations in Echo-compatible LDV plates. 10 nL of each compound dilution series was dispensed into assays wells using an Echo 650 (Labcyte inc. USA). 10 nL of 10 mM Lenalidomide was transferred into the active-control wells for the assay and 10 nL of DMSO was transferred into the neutral-control wells. The assay was then allowed to incubate for 30 min at ambient temperature after transferring compound. Plate measurements were taken on a Pherastar FSX (BMG Labtech, Germany) using the HTRF Red filter (Ex. 337 nm, em1: 620 nm, em2: 665 nm) (Flashes: 50, Integration time: 60-400 us, Z-height: 10 mm, Ratio-multiplier: 10,000).

Protein cereblon, sequence (Q96SW2 whole entry): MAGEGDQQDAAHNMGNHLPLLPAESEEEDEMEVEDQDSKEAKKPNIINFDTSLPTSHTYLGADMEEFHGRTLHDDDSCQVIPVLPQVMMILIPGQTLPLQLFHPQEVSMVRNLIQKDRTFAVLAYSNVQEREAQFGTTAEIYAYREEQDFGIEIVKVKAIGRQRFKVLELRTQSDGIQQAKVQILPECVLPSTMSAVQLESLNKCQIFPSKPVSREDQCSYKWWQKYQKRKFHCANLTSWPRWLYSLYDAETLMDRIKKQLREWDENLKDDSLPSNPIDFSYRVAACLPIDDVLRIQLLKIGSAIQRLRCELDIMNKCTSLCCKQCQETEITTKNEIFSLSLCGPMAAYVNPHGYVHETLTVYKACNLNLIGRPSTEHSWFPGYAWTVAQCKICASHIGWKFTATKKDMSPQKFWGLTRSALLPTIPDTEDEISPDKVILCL

Ki, < 100 nM:
O=C1CCC(c2c(F)cc(N3CC(NC(=O)OCC4CC5(CCC5)C4)C3)cc2F)C(=O)N1 (stereo not given) [US20250263395, Compound 1]
Cc1ccnc(N2CC(OC(=O)NC3CN(c4cc(F)c(C5CCC(=O)NC5=O)c(F)c4)C3)C2)c1 (stereo not given) [US20250263395, Compound 6]
Cc1cccc(N(C)C(=O)N2CC(OC(=O)NC3CN(c4cc(F)c(C5CCC(=O)NC5=O)c(F)c4)C3)C2)c1 (stereo not given) [US20250263395, Compound 10]
O=C1CCC(c2c(F)cc(N3CC(NC(=O)OC4CN(C(=O)N5CCCC5)C4)C3)cc2F)C(=O)N1 (stereo not given) [US20250263395, Compound 32]
Cc1ccc(C)c(N(C)C(=O)C23CC(OC(=O)NC4CN(c5cc(F)c(C6CCC(=O)NC6=O)c(F)c5)C4)(C2)C3)c1 (stereo not given) [US20250263395, Compound 111]
